One assay addresses IKKε (Homo sapiens (Human), UniProt Q14164). The assay is described as follows: TR-FRET kinase assay, IKKε. Format: biochemical. The following applies: full length recombinant IKKε 0.3 nM, 2x Km ATP, 1 μM peptide, 240 min at 25° C.; geometric mean of minimum four determinations. An excerpt:
Biological Assay for TBK1 and IKKs:

Another assay addresses TBK1 (Homo sapiens (Human), UniProt Q9UHD2). The assay is described as follows: TR-FRET kinase assay, TBK1. As to conditions: read-out: TBK1-IC50; full length recombinant TBK1 2.5 nM, 2x Km ATP, 1 μM peptide, 240 min at 25° C.; geometric mean of minimum four determinations. (TR-FRET usually uses a lanthanide donor and a delayed reading to cut background.)

The results in this text go back to patent publication US10072001B2, “Tank-binding kinase inhibitor compounds” (Gilead Sciences, Inc., priority 2014, dated 2018).

pIC50: −log10 of the molar value. Bounds are passed on as bounds.

Sequence of TBK1 (Q9UHD2 whole entry): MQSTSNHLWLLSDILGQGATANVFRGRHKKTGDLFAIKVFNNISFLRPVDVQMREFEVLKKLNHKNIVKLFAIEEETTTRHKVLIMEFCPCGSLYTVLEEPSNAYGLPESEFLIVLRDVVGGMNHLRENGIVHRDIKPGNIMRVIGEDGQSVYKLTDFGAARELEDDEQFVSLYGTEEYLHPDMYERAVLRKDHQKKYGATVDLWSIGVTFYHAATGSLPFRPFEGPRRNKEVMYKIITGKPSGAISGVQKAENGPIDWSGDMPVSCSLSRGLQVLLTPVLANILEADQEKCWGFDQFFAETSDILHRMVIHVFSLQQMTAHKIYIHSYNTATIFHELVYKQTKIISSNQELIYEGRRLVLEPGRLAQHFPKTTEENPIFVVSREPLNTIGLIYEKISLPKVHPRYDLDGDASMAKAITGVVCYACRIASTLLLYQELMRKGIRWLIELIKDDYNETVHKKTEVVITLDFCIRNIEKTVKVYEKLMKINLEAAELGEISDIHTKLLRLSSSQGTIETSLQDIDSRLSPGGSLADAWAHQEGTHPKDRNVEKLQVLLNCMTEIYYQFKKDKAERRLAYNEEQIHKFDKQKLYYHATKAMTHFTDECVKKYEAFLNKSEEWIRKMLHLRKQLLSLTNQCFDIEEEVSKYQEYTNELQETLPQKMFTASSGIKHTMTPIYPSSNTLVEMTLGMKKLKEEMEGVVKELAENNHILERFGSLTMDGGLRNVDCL
Sequence of IKKε (Q14164 whole entry): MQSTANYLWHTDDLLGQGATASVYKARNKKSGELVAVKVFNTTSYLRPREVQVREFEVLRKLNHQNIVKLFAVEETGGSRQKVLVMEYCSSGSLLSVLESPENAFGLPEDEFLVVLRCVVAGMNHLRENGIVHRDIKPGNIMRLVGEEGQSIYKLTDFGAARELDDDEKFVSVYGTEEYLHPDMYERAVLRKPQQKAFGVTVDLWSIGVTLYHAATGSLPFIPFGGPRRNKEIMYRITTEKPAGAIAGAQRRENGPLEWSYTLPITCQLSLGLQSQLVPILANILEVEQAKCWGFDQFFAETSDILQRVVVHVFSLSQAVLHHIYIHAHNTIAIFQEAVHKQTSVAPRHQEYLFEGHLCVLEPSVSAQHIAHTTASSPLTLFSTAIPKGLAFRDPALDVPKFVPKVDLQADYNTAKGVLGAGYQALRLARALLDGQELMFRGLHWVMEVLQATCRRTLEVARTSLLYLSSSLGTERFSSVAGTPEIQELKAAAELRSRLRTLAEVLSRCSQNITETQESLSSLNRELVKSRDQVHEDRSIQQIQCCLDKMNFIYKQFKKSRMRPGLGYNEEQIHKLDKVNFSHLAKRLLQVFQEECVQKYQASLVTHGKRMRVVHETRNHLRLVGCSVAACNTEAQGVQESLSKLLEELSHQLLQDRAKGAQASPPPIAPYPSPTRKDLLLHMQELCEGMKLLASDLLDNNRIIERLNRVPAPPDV
Procedure for TBK1: Enzymatic activity of IKKε and TBK1 was measured using a homogeneous time resolved fluorescence resonance energy transfer (TR-FRET) assay that monitors enzyme dependent phosphorylation of a biotinylated serine/threonine peptide substrate. […] TBK1 and IKKs were expressed and purified as full length recombinant proteins. Detection reagents for the assay were purchased from Cisbio. […] After an assay reaction time of 240 minutes at 25° C., reactions were terminated with EDTA.
Amount of phosphorylated peptide was determined by the addition of 125 nM streptavidin XL665 and europium cryptate labeled anti-phospho monoclonal antibody and the resulting TR-FRET signal was recorded on an Envision plate reader (Ex: 340 nm; Em: 615/665 nm; 100 μs delay and 200 μs read window). […] All IC50 values represent geometric mean values of a minimum of four determinations.

Turning to `N#Cc1cc(-c2ccnc3[nH]c(-c4ccc(N5CCOCC5)cc4)cc23)ccc1N1CC(O)C1` [Example 193, 2-(3-hydroxyazetidin-1-yl)-5-(2-(4-morpholinophenyl)-1H-pyrrolo[2,3-b]pyridin-4-yl)benzonitrile], the negative logarithm of the IC50 (pIC50) was 7.81 on IKKε and 8.48 at TBK1.

In the case of `N#Cc1cc(-c2ncnc3[nH]c(-c4ccc(C(=O)N5CCOCC5)cc4)cc23)ccc1OC1CCN(C(=O)CO)CC1` [Example 160, 2-((1-(2-Hydroxyacetyl)piperidin-4-yl)oxy)-5-(6-(4-(morpholine-4-carbonyl)phenyl)-7H-pyrrolo[2,3-d]pyrimidin-4-yl)benzonitrile], the negative-log IC50 (pIC50) at IKKε was 8.63; on TBK1 it was 8.88.

For `CN1CCN(c2ccc(-c3nc4c(-c5ccc(OC6CCN(C=O)CC6)c(C#N)c5)ncnc4[nH]3)cc2)CC1` [Example 254, 2-((1-formylpiperidin-4-yl)oxy)-5-(8-(4-(4-methylpiperazin-1-yl)phenyl)-9H-purin-6-yl)benzonitrile], the negative logarithm of the IC50 (pIC50) on IKKε was 8.57; at TBK1 it was 8.37.

In the case of `N#Cc1cc(-c2ccnc3[nH]c(-c4ccccc4)cc23)ccc1OC1CCOCC1` [Example 83, 5-(2-phenyl-1H-pyrrolo[2,3-b]pyridin-4-yl)-2-((tetrahydro-2H-pyran-4-yl)oxy)benzonitrile], the values for the pIC50 at IKKε and at TBK1 were 7.70 and below 6.00, respectively.

On to `Cc1cc(N2CCOCC2)ccc1-c1cc2c(-c3ccc(OC4CCN(C(=O)CO)CC4)c(C#N)c3)ncnc2[nH]1` [Example 121, 2-((1-(2-hydroxyacetyl)piperidin-4-yl)oxy)-5-(6-(2-methyl-4-morpholinophenyl)-7H-pyrrolo[2,3-d]pyrimidin-4-yl)benzonitrile], for which the negative-log IC50 (pIC50) was 8.36 at IKKε and 8.89 at TBK1.

`N#Cc1cc(-c2ncnc3[nH]c(-c4ccc(N5CCOCC5)c(F)c4)cc23)ccc1OC1CCN(C(=O)CO)CC1` [Example 158, 5-(6-(3-fluoro-4-morpholinophenyl)-7H-pyrrolo[2,3-d]pyrimidin-4-yl)-2-((1-(2-hydroxyacetyl)piperidin-4-yl)oxy)benzonitrile]: the figures for the pIC50 at IKKε and on TBK1 were 8.62 and 8.99, respectively.

Consider `N#Cc1cc(-c2ncnc3[nH]c(-c4ccc(N5CCN(C6COC6)CC5)cc4)cc23)ccc1OC1CCN(C(=O)CO)CC1` [Example 157, 2-((1-(2-hydroxyacetyl)piperidin-4-yl)oxy)-5-(6-(4-(4-(oxetan-3-yl)piperazin-1-yl)phenyl)-7H-pyrrolo[2,3-d]pyrimidin-4-yl)benzonitrile], for which the pIC50 on IKKε was 8.84; at TBK1 it was 9.07.

Turning to `CN1CCN(C(=O)c2ccc(-c3cc4c(-c5ccc(OC6CCOCC6)c(C#N)c5)ncnc4[nH]3)cc2)CC1` [Example 187, 5-(6-(4-(4-methylpiperazine-1-carbonyl)phenyl)-7H-pyrrolo[2,3-d]pyrimidin-4-yl)-2-((tetrahydro-2H-pyran-4-yl)oxy)benzonitrile], the pIC50 is 8.73 at IKKε and 8.93 at TBK1.

In the case of `C[C@H](O)C(=O)N1CC[C@@H](Oc2ccc(-c3ncnc4[nH]c(-c5ccc(N6CCOCC6)cc5)nc34)cc2C#N)C1` [Example 210, 2-(((R)-1-((S)-2-hydroxypropanoyl)pyrrolidin-3-yl)oxy)-5-(8-(4-morpholinophenyl)-9H-purin-6-yl)benzonitrile], the pIC50 on IKKε is below 6.06; at TBK1 it was 7.41.

Consider `CC(C)(C)OC(=O)N1CC[C@@H](Oc2ccc(-c3ccnc4[nH]c(-c5ccc(N6CCOCC6)cc5)cc34)cc2C#N)C1` [Example 17, (R)-tert-butyl 3-(2-cyano-4-(2-(4-morpholinophenyl)-1H-pyrrolo[2,3-b]pyridin-4-yl)phenoxy)pyrrolidine-1-carboxylate], for which the values for the negative logarithm of the IC50 (pIC50) at IKKε and on TBK1 were 6.40 and 6.84, respectively.

Turning to `N#Cc1cc(-c2ncnc3[nH]c(-c4ccc(N5CCNCC5)cc4)cc23)ccc1OC1CCOCC1` [Example 200, 5-(6-(4-(piperazin-1-yl)phenyl)-7H-pyrrolo[2,3-d]pyrimidin-4-yl)-2-((tetrahydro-2H-pyran-4-yl)oxy)benzonitrile], the negative logarithm of the IC50 (pIC50) at IKKε is 8.99; on TBK1, 9.19.

As for `N#Cc1cc(-c2ccnc3[nH]c(-c4ccc(N5CCOCC5)cc4)cc23)ccc1N1CCCC1=O` [Example 13, 5-(2-(4-morpholinophenyl)-1H-pyrrolo[2,3-b]pyridin-4-yl)-2-(2-oxopyrrolidin-1-yl)benzonitrile], the values for the pIC50 on IKKε and on TBK1 were 6.74 and 7.60, respectively.

Consider `CC1(C)C(=O)Nc2cc(-c3cc4c(-c5ccc(OC6CCOCC6)c(C#N)c5)ccnc4[nH]3)ccc21` [Example 76, 5-(2-(3,3-dimethyl-2-oxoindolin-6-yl)-1H-pyrrolo[2,3-b]pyridin-4-yl)-2-((tetrahydro-2H-pyran-4-yl)oxy)benzonitrile], for which the pIC50 at IKKε was below 6.00; at TBK1 it was 8.24.

`N#Cc1cc(-c2ccnc3[nH]c(-c4cccc(N5CCOCC5)c4)nc23)ccc1OC1CCOCC1` [Example 308, 5-(2-(3-morpholinophenyl)-3H-imidazo[4,5-b]pyridin-7-yl)-2-((tetrahydro-2H-pyran-4-yl)oxy)benzonitrile]: the negative-log IC50 (pIC50) was 7.74 at IKKε and 7.60 at TBK1.

As to `N#Cc1cc(-c2ncnc3[nH]c(-c4ccc(N5CCOCC5)cc4)nc23)ccc1OC1CCN(C=O)CC1` [Example 250, 2-((1-formylpiperidin-4-yl)oxy)-5-(8-(4-morpholinophenyl)-9H-purin-6-yl)benzonitrile], the figures for the negative logarithm of the IC50 (pIC50) on IKKε and on TBK1 were 8.01 and 8.65, respectively.

`COC(=O)c1ccc(-c2cc3c(-c4ccc(OC5CCN(C(=O)CO)CC5)c(C#N)c4)ncnc3[nH]2)cc1` [Example 159, Methyl 4-(4-(3-cyano-4-((1-(2-hydroxyacetyl)piperidin-4-yl)oxy)phenyl)-7H-pyrrolo[2,3-d]pyrimidin-6-yl)benzoate]: the pIC50 at IKKε is 8.29; at TBK1, 8.66.

Regarding `N#Cc1cc(-c2ncnc3[nH]c(-c4ccc(=O)[nH]c4)cc23)ccc1OC1CCOCC1` [Example 183, 5-(6-(6-oxo-1,6-dihydropyridin-3-yl)-7H-pyrrolo[2,3-d]pyrimidin-4-yl)-2-((tetrahydro-2H-pyran-4-yl)oxy)benzonitrile], the pIC50 was 7.46 at IKKε and 7.72 on TBK1.

Take `N#Cc1cc(-c2ccnc3[nH]c(-c4cc5ccccc5[nH]4)cc23)ccc1OC1CCOCC1` [Example 38]: the negative-log IC50 (pIC50) was 7.11 at IKKε and 7.49 at TBK1.

For `N#Cc1cc(-c2ncnc3[nH]c(-c4ccc(N5CCOCC5)cc4)nc23)ccc1OC1CCN(S(N)(=O)=O)CC1` [Example 262, 4-(2-cyano-4-(8-(4-morpholinophenyl)-9H-purin-6-yl)phenoxy)piperidine-1-sulfonamide], the pIC50 is 8.37 on IKKε and 8.68 on TBK1.

Regarding `N#Cc1cc(-c2ccnc3[nH]c(-c4cnn(C5CCNCC5)c4)cc23)ccc1OC1CCOCC1` [Example 10, 5-(2-(1-(piperidin-4-yl)-1H-pyrazol-4-yl)-1H-pyrrolo[2,3-b]pyridin-4-yl)-2-((tetrahydro-2H-pyran-4-yl)oxy)benzonitrile], the negative-log IC50 (pIC50) at IKKε is 8.76; at TBK1 it was 8.91.

Usually pIC50 stands for the negative decadic logarithm of the IC50, by convention in mol/L.
